Test results taken from patent publication US20250281424A1 (New York Blood Center, Inc, priority 2020, published 2025).

Biological target: T1, human PF4 (Homo sapiens, UniProt P02776)
T1 construct: PF4 is a 70 amino acid, lysine-rich 7.8 kDa platelet-specific protein; made in house; host or cells: Escherichia coli BL21DE3 pLysS (pT7-7) and/or Drosophila S2 cells
T1 sequence (P02776 32-101): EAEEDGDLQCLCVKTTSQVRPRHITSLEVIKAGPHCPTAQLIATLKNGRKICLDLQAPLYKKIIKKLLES
Assay: Inhibition of PF4 tetramer formation (BS3 cross-linking, SDS-PAGE)
Assay type: biochemical
Settings: for inhibition at 1 µM: 1 μM inhibitor; for inhibition at 1 µM / inhibition at 3 µM / inhibition at 5 µM / inhibition at 10 µM: read-out: % inhibition of PF4 tetramer formation at single concentration of inhibitor; for inhibition at 3 µM: 3 μM inhibitor (column A); for IC50: read-out: IC50 of PF4 tetramer formation inhibition; for inhibition at 5 µM: 5 μM inhibitor; for inhibition at 10 µM: 10 μM inhibitor (column A)
How it was run: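 Recombinant human wild-type PF4 (E. coli-expressed, heparin-purified), 10 μg/ml in PBS, incubated with compound 15 min at 37° C or 60 min at room temperature, then cross-linked with 0.2 mM BS3 for 30 min at room temperature. Reducing 12% SDS-PAGE; bands quantified as % tetramer, trimer, dimer, monomer versus compound-free control.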

Row | inhibition at 1 µM | inhibition at 3 µM | IC50 | inhibition at 5 µM | inhibition at 10 µM | Structure (SMILES)
1 | 18% | 55% | – | – | – | Cc1ccccc1C(=O)CCC(=O)C1C(=O)c2ccc(Oc3ccc4c(c3)C(=O)C(C(=O)CCC(=O)c3ccccc3C)C4=O)cc2C1=O (centres unmarked) [Example 259, 2-[4-(2-methylphenyl)-4-oxobutanoyl]-5-({2-[4-(2-methylphenyl)-4-oxobutanoyl]-1,3-dioxo-2,3-dihydro-1H-inden-5-yl}oxy)-2,3-dihydro-1H-indene-1,3-dione]
2 | 38% | 41% | 3 µM | – | – | CSCCC(=O)C1C(=O)c2ccc(C(=O)c3ccc4c(c3)C(=O)C(C(=O)CCSC)C4=O)cc2C1=O (centres unmarked) [Example 277, 2-[3-(methylsulfanyl)propanoyl]-5-{2-[3-(methylsulfanyl)propanoyl]-1,3-dioxo-2,3-dihydro-1H-indene-5-carbonyl}-2,3-dihydro-1H-indene-1,3-dione]
3 | 39% | 74% | 1.35 µM | – | – | CC(C)C[C@@H](N)C(=O)C1C(=O)c2ccc(Oc3ccc4c(c3)C(=O)C(C(=O)[C@H](N)CC(C)C)C4=O)cc2C1=O (stereo partly drawn) [Example 357, 2-[(2R)-2-amino-4-methylpentanoyl]-5-({2-[(2R)-2-amino-4-methylpentanoyl]-1,3-dioxo-2,3-dihydro-1H-inden-5-yl}oxy)-2,3-dihydro-1H-indene-1,3-dione]
4 | 22% | 37% | – | – | – | CC(C)[C@@H](N)C(=O)C1C(=O)c2ccc(S(=O)(=O)c3ccc4c(c3)C(=O)C(C(=O)[C@H](N)C(C)C)C4=O)cc2C1=O (stereo partly drawn) [Example 353, 2-[(2R)-2-amino-3-methylbutanoyl]-5-({2-[(2R)-2-amino-3-methylbutanoyl]-1,3-dioxo-2,3-dihydro-1H-inden-5-yl}sulfonyl)-2,3-dihydro-1H-indene-1,3-dione]
5 | – | – | 1.75 µM | 84% | 92% | COc1cccc(NC(=O)C2C(=O)c3ccc(C(=O)c4ccc5c(c4)C(=O)C(C(=O)Nc4cccc(OC)c4)C5=O)cc3C2=O)c1 (centres unmarked) [Example 23, 5,5′-carbonylbis(1,3-dioxo-indan-2-carboxylic acid (3-methoxyphenyl)-amide)]
6 | – | – | 5.3 µM | 88% | 96% | C/C(O)=C1\C(=O)c2ccc(C#Cc3ccc4c(c3)C(=O)/C(=C(/C)O)C4=O)cc2C1=O [Example 196]
7 | – | – | 3.5 µM | 82% | 80% | CC(C)(C)OC(=O)N1C[C@@H]2[C@H](C1)[C@H]2C(=O)C1C(=O)c2ccc(C(=O)c3ccc4c(c3)C(=O)C(C(=O)[C@H]3[C@@H]5CN(C(=O)OC(C)(C)C)C[C@@H]53)C4=O)cc2C1=O (some centres unmarked) [Example 121]
8 | 13% | 32% | – | – | – | COC(=O)[C@H]1CCCCC1C(=O)C1C(=O)c2ccc(C(=O)c3ccc4c(c3)C(=O)C(C(=O)C3CCCC[C@@H]3C(=O)OC)C4=O)cc2C1=O (stereo in doubt) [Example 256, methyl (1S)-2-(5-{2-[(2S)-2-(methoxycarbonyl)cyclohexanecarbonyl]-1,3-dioxo-2,3-dihydro-1H-indene-5-carbonyl}-1,3-dioxo-2,3-dihydro-1H-indene-2-carbonyl)cyclohexane-1-carboxylate]
9 | – | – | ~3 µM | 74% | 79% | CC(C)C(=O)NCC(=O)C1C(=O)c2ccc(S(=O)(=O)c3ccc4c(c3)C(=O)C(C(=O)CNC(=O)C(C)C)C4=O)cc2C1=O (centres unmarked) [Example 191, 2-methyl-N-{2-[5-({2-[2-(2-methylpropanamido)acetyl]-1,3-dioxo-2,3-dihydro-1H-inden-5-yl}sulfonyl)-1,3-dioxo-2,3-dihydro-1H-inden-2-yl]-2-oxoethyl}propanamide]
10 | – | – | – | 18% | 36% | CN1CCC[C@H]1C(=O)C1C(=O)c2ccc(S(=O)(=O)c3ccc4c(c3)C(=O)C(C(=O)[C@@H]3CCCN3C)C4=O)cc2C1=O (stereo partly drawn) [Example 167, 2-[(2S)-1-methylpyrrolidine-2-carbonyl]-5-({2-[(2S)-1-methylpyrrolidine-2-carbonyl]-1,3-dioxo-2,3-dihydro-1H-inden-5-yl}sulfonyl)-2,3-dihydro-1H-indene-1,3-dione]
11 | – | – | – | 38% | 66% | O=C(NCC1CCCO1)C1C(=O)c2ccc(S(=O)(=O)c3ccc4c(c3)C(=O)C(C(=O)NCC3CCCO3)C4=O)cc2C1=O (centres unmarked) [Example 89, 5-[(1,3-dioxo-2-{[(oxolan-2-yl)methyl]carbamoyl}-2,3-dihydro-1H-inden-5-yl)sulfonyl]-1,3-dioxo-N-[(oxolan-2-yl)methyl]-2,3-dihydro-1H-indene-2-carboxamide]
12 | – | – | – | 70% | 75% | O=C(NCc1ccccc1)C1C(=O)c2ccc(S(=O)(=O)c3ccc4c(c3)C(=O)C(C(=O)NCc3ccccc3)C4=O)cc2C1=O (centres unmarked) [Example 93, N-benzyl-5-{[2-(benzylcarbamoyl)-1,3-dioxo-2,3-dihydro-1H-inden-5-yl]sulfonyl}-1,3-dioxo-2,3-dihydro-1H-indene-2-carboxamide]
13 | 2% | 9% | – | – | – | COCCOCCNCC(=O)C1C(=O)c2ccc(S(=O)(=O)c3ccc4c(c3)C(=O)C(C(=O)CNCCOCCOC)C4=O)cc2C1=O (centres unmarked) [Example 397, 2-(2-{[2-(2-methoxyethoxy)ethyl]amino}acetyl)-5-{[2-(2-{[2-(2-methoxyethoxy)ethyl]amino}acetyl)-1,3-dioxo-2,3-dihydro-1H-inden-5-yl]sulfonyl}-2,3-dihydro-1H-indene-1,3-dione]

Row | Structure (SMILES) | inhibition at 1 µM | inhibition at 3 µM | IC50 | inhibition at 5 µM | inhibition at 10 µM
14 | CC[C@H](C)[C@H](NC(=O)OC(C)(C)C)C(=O)C1C(=O)c2ccc(S(=O)(=O)c3ccc4c(c3)C(=O)C(C(=O)[C@@H](NC(=O)OC(C)(C)C)[C@@H](C)CC)C4=O)cc2C1=O (stereo partly drawn) [Example 279, tert-butyl N-[(2S,3S)-1-[5-({2-[(2S,3S)-2-{[(tert-butoxy)carbonyl]amino}-3-methylpentanoyl]-1,3-dioxo-2,3-dihydro-1H-inden-5-yl}sulfonyl)-1,3-dioxo-2,3-dihydro-1H-inden-2-yl]-3-methyl-1-oxopentan-2-yl]carbamate] | 33% | 15% | 3 µM | – | –
15 | O=C(CC1CCCCC1)C1C(=O)c2ccc(S(=O)(=O)c3ccc4c(c3)C(=O)C(C(=O)CC3CCCCC3)C4=O)cc2C1=O (centres unmarked) [Example 148, 2-(2-cyclohexylacetyl)-5-{[2-(2-cyclohexylacetyl)-1,3-dioxo-2,3-dihydro-1H-inden-5-yl]sulfonyl}-2,3-dihydro-1H-indene-1,3-dione] | – | – | – | 59% | 90%
16 | CSCCC(=O)C1C(=O)c2ccc(Oc3ccc4c(c3)C(=O)C(C(=O)CCSC)C4=O)cc2C1=O (centres unmarked) [Example 276, 2-[3-(methylsulfanyl)propanoyl]-5-({2-[3-(methylsulfanyl)propanoyl]-1,3-dioxo-2,3-dihydro-1H-inden-5-yl}oxy)-2,3-dihydro-1H-indene-1,3-dione] | 12% | 7% | 3 µM | – | –
17 | CC(C)(C)OC(=O)N1CC[C@H]1C(=O)C1C(=O)c2ccc(Oc3ccc4c(c3)C(=O)C(C(=O)[C@@H]3CCN3C(=O)OC(C)(C)C)C4=O)cc2C1=O (stereo partly drawn) [Example 273, tert-butyl (2S)-2-[5-({2-[(2S)-1-[(tert-butoxy)carbonyl]azetidine-2-carbonyl]-1,3-dioxo-2,3-dihydro-1H-inden-5-yl}oxy)-1,3-dioxo-2,3-dihydro-1H-indene-2-carbonyl]azetidine-1-carboxylate] | 20% | 20% | – | – | –
18 | CC(C)(C)OC(=O)N1C[C@@H]2[C@H](C1)[C@H]2C(=O)C1C(=O)c2ccc(-c3ccc4c(c3)C(=O)C(C(=O)[C@H]3[C@@H]5CN(C(=O)OC(C)(C)C)C[C@@H]53)C4=O)cc2C1=O (stereo partly drawn) [Example 216, tert-butyl (1R,5S,6R)-6-{2′-[(1R,5S,6R)-3-[(tert-butoxy)carbonyl]-3-azabicyclo[3.1.0]hexane-6-carbonyl]-1,1′,3,3′-tetraoxo-1H,1′H,2H,2′H,3H,3′H-[5,5′-biindene]-2-carbonyl}-3-azabicyclo[3.1.0]hexane-3-carboxylate] | – | – | 2.5 µM | 82% | 91%
19 | C=C1C[C@@H](C(=O)C2C(=O)c3ccc(C(=O)c4ccc5c(c4)C(=O)C(C(=O)[C@@H]4CC(=C)CN4C(=O)OC(C)(C)C)C5=O)cc3C2=O)N(C(=O)OC(C)(C)C)C1 (stereo partly drawn) [Example 133, tert-butyl (2S)-2-(5-{2-[(2S)-1-[(tert-butoxy)carbonyl]-4-methylidenepyrrolidine-2-carbonyl]-1,3-dioxo-2,3-dihydro-1H-indene-5-carbonyl}-1,3-dioxo-2,3-dihydro-1H-indene-2-carbonyl)-4-methylidenepyrrolidine-1-carboxylate] | – | – | ~6 µM | 66% | 88%
20 | CC(C)(C)OC(=O)N1CC[C@@H](C(=O)C2C(=O)c3ccc(S(=O)(=O)c4ccc5c(c4)C(=O)C(C(=O)[C@@H]4CCN(C(=O)OC(C)(C)C)C4)C5=O)cc3C2=O)C1 (stereo partly drawn) [Example 376, tert-butyl (3R)-3-[5-({2-[(3R)-1-[(tert-butoxy)carbonyl]pyrrolidine-3-carbonyl]-1,3-dioxo-2,3-dihydro-1H-inden-5-yl}sulfonyl)-1,3-dioxo-2,3-dihydro-1H-indene-2-carbonyl]pyrrolidine-1-carboxylate] | 22% | 62% | – | – | –
